From ChEMBL document CHEMBL1641439, “The effect of 5-substitution on the electrochemical behavior and antitubercular activity of PA-824” (2011)
≈ marks a conversion by molar mass, not a printed value.

Columns and labels:
[1] = system: Mycobacterium tuberculosis; assay: Antituberculosis activity against Mycobacterium tuberculosis H37Rv F420 mutant after 2 weeks; assay type: functional
[2] = system: Mycobacterium tuberculosis; assay: Antituberculosis activity against Mycobacterium tuberculosis H37Rv Ddn mutant after 2 weeks; assay type: functional

Row | Structure (SMILES) | MIC [1] [µM] | MIC [2] [µM]
1 | N#Cc1c([N+](=O)[O-])nc2n1C[C@H](OCc1ccc(OC(F)(F)F)cc1)CO2 | >100 | >100
2 | O=[N+]([O-])c1nc2n(c1Br)C[C@H](OCc1ccc(OC(F)(F)F)cc1)CO2 | 25 (≈ 11 µg/mL) | 25 (≈ 11 µg/mL)
3 | O=[N+]([O-])c1cn2c(n1)OC[C@@H](OCc1ccc(OC(F)(F)F)cc1)C2 [PRETOMANID] | >100 | >100
4 | Nc1c([N+](=O)[O-])nc2n1C[C@H](OCc1ccc(OC(F)(F)F)cc1)CO2 | >100 | >100
5 | O=[N+]([O-])c1nc2n(c1Cl)C[C@H](OCc1ccc(OC(F)(F)F)cc1)CO2 | 25 (≈ 9.84 µg/mL) | 50 (≈ 19.7 µg/mL)
